In PMC6934184, “Selective DNA-PKcs inhibition extends the therapeutic index of localized radiotherapy and chemotherapy” (The Journal of Clinical Investigation, 2019) one finds inhibition data, which are given here for one compound.

SMILES strings stand for the structures.

The assay addresses T1, RPS6KA3 (RSK2) (Homo sapiens, UniProt P51812).
T1 construct: purchased Thermo Fisher Scientific (Life Technologies) SelectScreen
The assay can be described thus: SelectScreen Z'LYTE. In kind it is biochemical. The essentials:
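NU5455 was profiled across the SelectScreen Broad panel of kinase activity and binding assays. Z'LYTE reactions such as CSF1R ran at apparent Km ATP, while the Adapta CAMK1 assay used ATP listed as 10. Values are given as percent.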

T1 sequence (P51812 whole entry): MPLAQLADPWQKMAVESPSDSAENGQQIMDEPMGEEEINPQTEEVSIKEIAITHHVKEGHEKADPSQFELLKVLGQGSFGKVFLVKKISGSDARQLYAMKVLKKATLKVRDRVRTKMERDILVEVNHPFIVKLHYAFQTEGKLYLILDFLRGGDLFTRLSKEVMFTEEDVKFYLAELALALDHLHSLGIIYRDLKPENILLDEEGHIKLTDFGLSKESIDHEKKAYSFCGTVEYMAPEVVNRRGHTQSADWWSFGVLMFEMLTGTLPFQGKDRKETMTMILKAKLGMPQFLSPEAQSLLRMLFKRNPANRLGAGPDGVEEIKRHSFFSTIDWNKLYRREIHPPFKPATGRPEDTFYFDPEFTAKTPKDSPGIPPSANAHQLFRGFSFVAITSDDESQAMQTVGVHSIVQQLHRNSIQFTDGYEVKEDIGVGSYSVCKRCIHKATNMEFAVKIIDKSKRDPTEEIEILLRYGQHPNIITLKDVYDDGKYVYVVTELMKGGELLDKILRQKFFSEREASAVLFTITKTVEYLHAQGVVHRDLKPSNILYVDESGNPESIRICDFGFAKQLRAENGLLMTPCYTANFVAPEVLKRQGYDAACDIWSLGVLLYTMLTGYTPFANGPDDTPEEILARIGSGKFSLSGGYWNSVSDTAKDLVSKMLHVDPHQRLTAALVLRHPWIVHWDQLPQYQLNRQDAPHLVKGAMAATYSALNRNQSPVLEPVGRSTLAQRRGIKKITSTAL

In turn, `CN(C(=O)CN1CCOCC1)c1ccc2sc3c(-c4cccc5c(=O)cc(N6CC7CCC(C6)O7)oc45)cccc3c2c1` [NU5455] returned an inhibition at 1 µM of 2.1%.

As a reminder, the inhibition is the share of the control response that was lost under treatment. Higher therefore signals a response far below the control.
